Key:
C14-1b = test: Northern analysis of mRNA accumulation in cultured tobacco cells; format: cell-based
Description: (§1) FIG. 2. Time course of SA-induced gene expression. Northern analysis of representative differential display genes following treatment of cultured tobacco cells with SA for the indicated time (in hours, except lanes 2-4, which refer to 10, 20, and 30 min.). Twenty micrograms of total RNA was loaded per lane. Blots were hybridized with ddPCR fragments indicated at right or with the β-ATPase gene as a loading control probe. Autoradiogram exposure times were optimized for each gene. The signal for C18-1 was enhanced by using the full length cDNA as probe. Labels on left indicate response class.
(§2) FIG. 4. Specificity of induction among SA analogs and other signalling compounds. Northern analysis of representative differential display genes following treatment of tobacco cells with 100 μM or 1 mM (left and right side of triangles, respectively) of the following chemicals for 2-2.5 hr: salicylic acid (SA, lanes 4 and 5), acetylSA (ASA, lanes 6 and 7), benzoic acid (BA, lanes 8 and 9), 4-hydroxybenzoic (4HBA, lanes 10 and 11), thiamine (thia, lanes 12 and 13), methyljasmonate (MJ, lanes 14 and 15), abscisic acid (ABA, lanes 16 and 17), or 2,4-dichlorophenoxyacetic acid (2,4-D, lanes 18 and 19). Control treatments are H2O (H, lane 1), 1% ethanol (E, solvent concentration in MJ treatments, lane 2), or 1% DMSO (D, solvent concentration in 2,4D treatments, lane 3). Blots were hybridized with ddPCR fragments indicated at right or with the β-ATPase geneas a loading control probe. Autoradiogram exposure times were optimized for each gene. The signal for C18-1 was enhanced by using the full length cDNA as probe. Labels on left indicate response class.
(§3) Differential display technology (Liang, P. and Pardee, A. B., Science 257: 967-971, 1992) was used to identify genes activated in the presence of SA, CHX and both. Therefore the absence or presence of SA, induction at 3 timepoints of SA-treatment, 2 different concentrations of SA and the effect of addition of CHX were measured. Seven treatments in total were performed. Treatment of tobacco BY-2 suspension cells and leaves and differential display PCR reactions were performed as described (Horvath and Chua (1996), Plant Mol. Biol. 31, 1061-1072).
(§4) The specificity for induction by SA was tested by treating tobacco cells with a range of SA analogs and plant signalling compounds at 0.1 and 1 mM for approximately 2.5 h. […] Among the SA-analogs, acetyl-SA (ASA, aspirin), benzoic acid (BA) and 4-hydroxybenzoic acid (4HBA), responses generally reflected the ability of the analog to substitute for SA in other cellular responses (Yalpani, N. et al., Plant Cell 3: 809-818, 1991, Yang, Y. and Klessig, D. F., Proc. Natl. Acad. Sci. 93, 14972-14977, 1996). […] Several genes, including those for proteinase inhibitors and lipoxygenase (Hildmann, T. et al., Plant Cell 4: 1157-1170, 1992; Melan, M. A. et al., Plant Physiol. 101: 441-450, 1993; Xu, D. et al., Plant Mol. Biol. 22: 573-588, 1993) are known to be under dual regulation by MJ and ABA. A similar mode of regulation may be in effect with C14-1b. the auxin 2,4-D induced several genes including C18-1/EREBP1 and C6-2.

C6-2 = test: as above; format: cell-based
Description: as §1, §2, §3, §4

[1] = tested on: early SA-induced genes identified by differential display; test: Northern analysis of differential display genes in cultured tobacco cells; format: cell-based
Description: FIG. 1. […] Northern analysis of genes identified by differential display. Gel-purified DNA fragments produced by ddPCR were either used directly for random-primed labeling and probing of Northern filters (e.g. C7-1, C6-1, and G9-2) or first subcloned and released by restriction digest. Each lane contains 1 μg of poly(A) mRNA from cultured tobacco cells treated with (1) H2O, 4 hr; (2) 200 μM SA, 4 hr; (3) 71 μM CHX, 5 hr; (4) 71 μM CHX, 5 hr plus 200 μM SA after 1 hr (4 hr total); (5) 20 μM SA, 2 hr; (7) 200 μM SA, 8 hr.
as §2, with “The signal for C18-1 was enhanced by using the full length cDNA as probe.” left out
as §3
The specificity for induction by SA was tested by treating tobacco cells with a range of SA analogs and plant signalling compounds at 0.1 and 1 mM for approximately 2.5 h. […] Several genes, including those for proteinase inhibitors and lipoxygenase (Hildmann, T. et al., Plant Cell 4: 1157-1170, 1992; Melan, M. A. et al., Plant Physiol. 101: 441-450, 1993; Xu, D. et al., Plant Mol. Biol. 22: 573-588, 1993) are known to be under dual regulation by MJ and ABA.

G8-1 = test: Northern analysis of mRNA accumulation in cultured tobacco cells; format: cell-based; conditions: SA 0.1 μM to 2 mM
G1-1/EGT = conditions: SA; previously shown (Horvath and Chua, 1996); cited from earlier work
[2] = 0.1 and 1 mM, approximately 2.5 h

EC50 (G8-1; Nicotiana tabacum, tobacco cells, 2-2.5 hr, read-out: concentration of SA required for half of the maximum level of G8-1 expression): ~1 µM
SMILES: O=C(O)c1ccccc1O [SA, salicylic acid]
induction of C14-1b (C14-1b; [2]): did not reveal response
time at which C14-1b induction is apparent (C14-1b; SA time course): 2 to 2.5 h
time of peak C14-1b expression (C14-1b; SA time course): 5 h
C6-2 induction at 0.1 mM versus 1 mM (C6-2; [2]): greater induction at 1mM
time at which C6-2 induction is apparent (C6-2; SA time course): ≤ 10 min
time of peak C6-2 mRNA (C6-2; SA time course): approximately 1.5 h
time of reduction of C6-2 mRNA to background levels (C6-2; SA time course): ≤ 4 h
induction of most of the genes at 20 μM SA ([1]; 20 μM SA): little or none
induction of most of the genes at 200 μM SA ([1]; 200 μM SA): clear induction
response of G8-1 expression to SA concentration range (G8-1): activated over a large SA concentration range
time at which G1-1/EGT is induced (G1-1/EGT): 20 to 30 min
time of peak G1-1/EGT (G1-1/EGT): 3 h

From patent US20020039780A1, “Salicyclic acid inducible genes and promoters” (priority 1998, published 2002)
